Test results from PMC10674894 (Viruses, 2023).

Legend:
[1] = test system: Vero cells; assay: Cytotoxicity MTT assay in Vero cells (MNTD, CC50); assay type: cell-based, African green monkey
[2] = test system: CHIKV DRDE-07; assay: In vitro screening against CHIKV (CPE inhibition and MTT cell viability); assay type: cell-based, chikungunya virus; settings: for Cell Viability: CHIKV-infected Vero cells treated at MNTD, MTT, cell control + DMSO = 100%; for Cell Viability / % Cell viability: 72 hpi; for CPE / % Cell viability: Table S1, CHIKV-infected Vero cells; for CPE: arbitrary score of cytopathic effect at >48 hpi; for % Cell viability: MTT assay
[3] = maximum nontoxic dose in Vero cells, MTT

Nc1nc(N)c2c(F)cccc2n1 [DCR 135, 5-fluoro-quinazoline-2,4-diamine]
MNTD ([1]; Table S1, Vero cells): 250 µM | MNTD [1, 3]: 250 µM | Cell Viability [2]: 61% | CPE [2]: ++ (50-30% (++))

Nc1nc(N)c2cc(F)c(F)cc2n1 [DCR 138, 6,7-difluoro-quinazoline-2,4-diamine]
MNTD ([1]; Table S1, Vero cells): 250 µM | MNTD [1, 3]: 250 µM | Cell Viability [2]: 51% | CPE [2]: ++ (50-30% (++))

COc1cc(-c2cc(-c3ccc(O)cc3)nn2C(=O)c2cccnc2)cc(OC)c1OC [DCR60, 4-[1-(pyridine-3-carbonyl)-5-(3,4,5-trimethoxyphenyl)-1H-pyrazol-3-yl]phenol]
MNTD ([1]; Table S1, Vero cells): 31.25 µM | % Cell viability [2]: -3.41% | CPE [2]: ++++ (>60% (++++))

CCc1ccc(C2c3c(ccc4ccccc34)Oc3ccc4ccccc4c32)cc1 [DCR118, 2‐(4‐ethylphenyl)‐13‐oxapentacyclo[12.8.0.0³,¹².0⁴,⁹.0¹⁷,²²]docosa‐1(14),3,5,7,9,11,15,17(22),18,20‐decaene]
MNTD ([1]; Table S1, Vero cells): 31.25 µM | % Cell viability [2]: 14.23% | CPE [2]: ++++ (>60% (++++))

CC1CN(c2ccc(C#N)c(Cl)c2)CC(C)N1 (stereo not shown) [DCR148, 2-Chloro-4-(3,5-dimethyl-piperazin-1-yl)-benzonitrile]
MNTD ([1]; Table S1, Vero cells): 125 µM | % Cell viability [2]: 14.42% | CPE [2]: ++++ (>60% (++++))

COc1cccc(C2C3=C(CC(C)(C)CC3=O)OC3=C2C(=O)CC(C)(C)C3)c1 [DCR125, 9‐(3‐methoxyphenyl)‐3,3,6,6‐tetramethyl‐2,3,4,5,6,7,8,9‐octahydro‐1H‐xanthene‐1,8‐dione]
MNTD ([1]; Table S1, Vero cells): 125 µM | % Cell viability [2]: 11.19% | CPE [2]: ++++ (>60% (++++))

COc1ccc(C2NC(=O)NC(C)=C2C(=O)OCCN(C)C)cc1 (stereo not shown) [DCR112, 2-(dimethylamino)ethyl 4-(4-methoxyphenyl)-6-methyl-2-oxo-1,2,3,4-tetrahydropyrimidine-5-carboxylate]
MNTD ([1]; Table S1, Vero cells): 62.5 µM | % Cell viability [2]: 2.09% | CPE [2]: ++++ (>60% (++++))

CCOc1ccc(C2NC(=O)Oc3ccc4ccccc4c32)cc1 (stereo not shown) [DCR69, 1-(4-ethoxyphenyl)-1H,2H,3H-naphtho[1,2-e][1,3]oxazin-3-one]
MNTD ([1]; Table S1, Vero cells): 195.71 µM | % Cell viability [2]: 7.61% | CPE [2]: ++++ (>60% (++++))

CCOc1cc(C2C3=C(CC(C)(C)CC3=O)OC3=C2C(=O)CC(C)(C)C3)ccc1O [DCR130, 9‐(3‐ethoxy‐4‐hydroxyphenyl)‐3,3,6,6‐tetramethyl‐2,3,4,5,6,7,8,9‐octahydro‐1H‐xanthene‐1,8‐dione]
MNTD ([1]; Table S1, Vero cells): 15.6 µM | % Cell viability [2]: 17.21% | CPE [2]: ++++ (>60% (++++))

O=C(N/N=C/c1ccc(Cl)cc1)c1ccncc1 [DCR40, (E)-N'-(4-chlorobenzylidene)isonicotinohydrazide]
MNTD ([1]; Table S1, Vero cells): 31.25 µM | % Cell viability [2]: 5.23% | CPE [2]: ++++ (>60% (++++))

CC1=C(C(=O)OCC[N+](C)(C)C)C(c2ccc(Cl)cc2)NC(=O)N1 (stereo not shown) [DCR106, 2-({[4-(4-chlorophenyl)-6-methyl-2-oxo-1,2,3,4-tetrahydropyrimidin-5-yl]carbonyl}oxy)-N,N,N-trimethylethanaminium]
MNTD ([1]; Table S1, Vero cells): 62.5 µM | % Cell viability [2]: 3.33% | CPE [2]: ++++ (>60% (++++))

C#CCOC(=O)C1=C(C)NC(=O)NC1c1ccc(C(F)(F)F)cc1 (stereo not shown) [DCR91, prop-2-yn-1-yl 6-methyl-2-oxo-4-[4-(trifluoromethyl)phenyl]-1,2,3,4-tetrahydropyrimidine-5-carboxylate]
MNTD ([1]; Table S1, Vero cells): 369.52 µM | % Cell viability [2]: 13.12% | CPE [2]: ++++ (>60% (++++))

C#CCOC(=O)C1=C(C)NC(=O)NC1c1ccc([N+](=O)[O-])cc1 (stereo not shown) [DCR93, prop-2-yn-1-yl 6-methyl-4-(4-nitrophenyl)-2-oxo-1,2,3,4-tetrahydropyrimidine-5-carboxylate]
% Cell viability [2]: 12.17% | CPE [2]: ++++ (>60% (++++))
